The text below walks through data of patent EP4800018A1, “PAN-KRAS INHIBITOR AND USE THEREOF IN MEDICINES” (Betta Pharmaceuticals Co., Ltd., priority 2023, dated 2025).

Common to all, as to assay type: cell-based
The subject of test [1] is KRAS-G12V mutant tumor cells SW620. The test can be described thus: Cell Proliferation Inhibition Assay (SW620), Cell-titer GLO, 96 h. The following applies: Homo sapiens, SW-620, 96 h, SW620 cells, 96 h incubation, Cell-titer GLO; read-out: SW620(G12V). In short, it runs like this: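 SW620 cells (1×10^3/well, low-attachment) were exposed to compound from 10000 to 0.03 nM (0.5% DMSO) for 96 h at 37°C. Viability was read by Cell-titer GLO luminescence. Inhibition was calculated relative to DMSO and blank wells, and IC50 obtained by curve fitting.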

In test [2] the target is T1, KRAS G12V-cRAF (Homo sapiens, UniProt P01116, G12V).
T1 construct: expressed in transfected cells
T1 sequence (P01116 1-188 isoform P01116-2 G12V): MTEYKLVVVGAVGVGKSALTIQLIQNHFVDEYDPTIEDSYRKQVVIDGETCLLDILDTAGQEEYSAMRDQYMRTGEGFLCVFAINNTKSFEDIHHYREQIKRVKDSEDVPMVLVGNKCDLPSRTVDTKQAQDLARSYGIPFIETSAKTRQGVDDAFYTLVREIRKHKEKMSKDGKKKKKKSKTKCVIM
As to the kind of experiment: Cellular KRAS G12V-cRAF Binding Inhibition Assay (NanoBRET, AD293 stable cells). The conditions noted are these: 3 h incubation, read-out: NanoBRET KRAS G12V. In short, it runs like this:
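Live AD293 stable cells, NanoLuc donor with HaloTag NanoBRET 618 ligand acceptor added overnight. Inhibition percent from luminescence relative to max signal and medium blank; IC50 from curve fitting.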

In test [3] the target is T2, KRAS G12D-cRAF (Homo sapiens, UniProt P01116, G12D).
T2 construct: expressed in transfected cells
T2 sequence (P01116 1-188 isoform P01116-2 G12D): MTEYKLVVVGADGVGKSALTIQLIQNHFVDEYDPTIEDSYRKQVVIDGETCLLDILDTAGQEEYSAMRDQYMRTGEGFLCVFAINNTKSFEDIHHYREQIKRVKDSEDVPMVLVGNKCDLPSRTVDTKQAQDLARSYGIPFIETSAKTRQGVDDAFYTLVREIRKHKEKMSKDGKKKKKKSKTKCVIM
As to the kind of experiment: Cellular KRAS G12D-cRAF Binding Inhibition Assay (NanoBRET, AD293 stable cells). The following applies: 3 h incubation, read-out: NanoBRET KRAS G12D. An outline of the steps: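 AD293 cells stably expressing KRAS G12D-NanoLuc and cRAF RBD-HaloTag were seeded at 1×10^4 cells/well with NanoBRET 618 ligand overnight. BRET signal was converted to % inhibition of binding relative to max and blank wells, and IC50 came from curve fitting.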
(In general: Bioluminescence resonance energy transfer reports proximity on the nanometre scale.)

For test [4], the system named is KRAS-G12D mutant tumor cells AGS. As to the kind of experiment: Cell Proliferation Inhibition Assay (AGS), Cell-titer GLO, 96 h. The conditions noted are these: Homo sapiens, AGS, 96 h, AGS cells, 96 h incubation, Cell-titer GLO; read-out: AGS(G12D). An outline of the steps: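 AGS cells (KRAS-G12D) grown in low-attachment plates were exposed to compound for 96 h at 37°C. Viability was read by CellTiter-Glo luminescence and converted to % inhibition against max and blank wells. IC50 came from curve fitting.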

As to `CC1OCCCn2c(c3c4cc(ccc42)-c2csc(n2)CC(NC(=O)C2CC2C(F)F)C(=O)N2CCCC(N2)C(=O)OCC(C)(C)C3)-c2cc(N3CCC(N4CCN(C)CC4)CC3)cnc21` [Example 102, (1S,2S)-2-(difluoromethyl)-N-((1^5S,6^3S,4S,Z)-1^5,10,10-trimethyl-1^2-(4-(4-methylpiperazin-1-yl)piperidin-1-yl)-5,7-dioxo-1^8,1^9,6^1,6^2,6^3,6^4,6^5,6^6-octahydro-1^5H,1^7H-8-oxa-1(13,15)-pyrido[3',2':7 ,8][1,5]oxazonino[5,6-a]indola-2(4,2)-thiazola-6(1,3)-pyridazinacycloundecaphane-4-yl)cyclopr opane-1-carboxamide], the IC50 turned out to be 0.17 nM in test [1], 14.7 nM in test [2], 4.13 nM in test [3] and 0.38 nM in test [4].

For the compound `CC1OCCCn2c(c3c4cc(ccc42)-c2csc(n2)CC(NC(=O)C2CC2C(F)F)C(=O)N2CCCC(N2)C(=O)OCC(C)(C)C3)-c2cc(N3CCC4(CCN(C)CC4)CC3)cnc21` [Example 103, (1S,2S)-2-(difluoromethyl)-N-((1^5S,6^3S,4S,Z)-1^5,10,10-trimethyl-1^2-(9-methyl-3,9-diazaspiro[5. 5]undecan-3-yl)-5,7-dioxo-1^8,1^9,6^1,6^2,6^3,6^4,6^5,6^6-octahydro-1^5H,1^7H-8-oxa-1(13,15)-pyrido[3',2': 7,8][1,5]oxazonino[5,6-a]indola-2(4,2)-thiazola-6(1,3)-pyridazinacycloundecaphane-4-yl)cyclop ropane-1-carboxamide], the IC50 amounted to 0.21 nM in test [1], 22.2 nM in test [2], 7.74 nM in test [3] and 0.85 nM in test [4].

Turning to `CC1OCCCn2c(c3c4cc(ccc42)-c2csc(n2)CC(NC(=O)C2CC2C(F)F)C(=O)N2CCCC(N2)C(=O)OCC(C)(C)C3)-c2cc(N3CCN(C4CCN(C)CC4)CC3)cnc21` [Example 104, (1S,2S)-2-(difluoromethyl)-N-((1^5S,6^3S,4S,Z)-1^5,10,10-trimethyl-1^2-(4-(1-methylpiperidin-4-yl)piperazin-1-yl)-5,7-dioxo-1^8,1^9,6^1,6^2,6^3,6^4,6^5,6^6-octahydro-1^5H,1^7H-8-oxa-1(13,15)-pyrido[3',2': 7,8][1,5]oxazonino[5,6-a]indola-2(4,2)-thiazola-6(1,3)-pyridazinacycloundecaphane-4-yl)cyclop ropane-1-carboxamide], the IC50 in test [1] stood at 0.2 nM; in test [2] it was 11.8 nM; in test [3] it was 3.2 nM; in test [4], 0.63 nM.

Take `CC1OCCCn2c(c3c4cc(ccc42)-c2csc(n2)CC(NC(=O)C2CC2C(F)F)C(=O)N2CCCC(N2)C(=O)OCC(C)(C)C3)-c2cc(N3CCC(N(C)C)CC3)cnc21` [Example 105, (1S,2S)-2-(difluoromethyl)-N-((1^5S,6^3S,4S,Z)-1^2-(4-(dimethylamino)piperidin-1-yl)-1^5,10,10-trimethyl-5,7-dioxo-1^8,1^9,6^1,6^2,6^3,6^4,6^5,6^6-octahydro-1^5H,1^7H-8-oxa-1(13,15)-pyrido[3',2':7,8][1,5]oxazonino[5,6-a]indola-2(4,2)-thiazola-6(1,3)-pyridazinacycloundecaphane-4-yl)cyclopropane-1-carboxamide]: the IC50 in test [1] worked out at 0.24 nM; in test [2] it was 16.6 nM; in test [3], 4.55 nM; in test [4], 0.69 nM.

Consider `CC1OCCCn2c(c3c4cc(ccc42)-c2csc(n2)CC(NC(=O)C2CC2C(F)F)C(=O)N2CCCC(N2)C(=O)OCC(C)(C)C3)-c2cc(N3CCC(N4CCOCC4)CC3)cnc21` [Example 106, (1S,2S)-2-(difluoromethyl)-N-((1^5S,6^3S,4S,Z)-1^5,10,10-trimethyl-1^2-(4-morpholinopiperidin-1-yl)-5,7-dioxo-1^8,1^9,6^1,6^2,6^3,6^4,6^5,6^6-octahydro-1^5H,1^7H-8-oxa-1(13,15)-pyrido[3',2':7,8][1,5]oxazonino[5,6-a]indola-2(4,2)-thiazola-6(1,3)-pyridazinacycloundecaphane-4-yl)cyclopropane-1-carb oxamide], for which the IC50 in test [1] turned out to be 0.24 nM; in test [2] it was 27.4 nM; in test [3] it was 6.39 nM; in test [4], 0.86 nM.
